Patent US20220389515A1, “USE OF BIOMARKERS TO PREDICT CLINICAL SENSITIVITY TO 2-(4-CHLOROPHENYL)-N-((2-(2,6-DIOXOPIPERIDIN-3-YL)-1-OXOISOINDOLIN-5-YL)METHYL)-2,2-DIFLUOROACETAMIDE” (priority 2019, published 2022)
“Also recorded” adds a separate entry of the source.

Tests used:
GSPT1 [1] = biological target: T1, GSPT1 (Homo sapiens, UniProt P15170); test: Immunoblot analysis of Compound D-induced GSPT1 degradation in AML cells; format: cell-based
T1 construct: endogenous in cells; host or cells: KG-1 (TMT proteomics); KG1, U937 / U937-Cas9, MOLM-13, OCI-AML2 (immunoblots)
Procedure: (§1) FIG. 2A illustrates the volcano plot of differentially abundant proteins in response to Compound D treatment relative to the DMSO control. KG1 cells were treated with DMSO or 100 nM Compound D for 4 hours and subjected to TMT proteomics analysis. The X-axis denotes the log 2-fold change of Compound D versus the DMSO control for each protein. P-values were corrected for multiple hypothesis testing using the Benjamini-Hoschberg method to arrive at an adjusted-P-value (adj-P, also known as a false discovery rate). The y-axis denotes the −log 10 (adj-P) values indicating statistical significance such that proteins lying above the dotted red line are statistically significant findings with adjusted P-values<0.05. FIG. 2B illustrates the immunoblot analysis of KG1 and U937 cells treated with DMSO or Compound D for 4 hours. Where indicated, cells were pretreated with Bortezomib or MLN4924 for 30 minutes. FIGS. 2C and 2D illustrate the immunoblot analysis (FIG. 2C) and cell proliferation (FIG. 2D) of U937-Cas9 parental cells or cells stably transduced with lentiviral vectors expressing a non-targeting sgRNA (sgNT-1), a sgRNA targeting a non-coding region (sgNC-8), or a sgRNA targeting CRBN(sgCRBN-8). Cells were treated with DMSO or Compound D at indicated concentrations. FIGS. 2E and 2F illustrate the immunoblot analysis (left panel) and cell proliferation (right panel) of MOLM-13 (FIG. 2E) and OCI-AML2 (FIG. 2F) parental and CRBN−/− cells. Cells were treated with DMSO or Compound D at indicated concentrations. Results shown in all figure panels are representative of three biological replicates. Data in FIGS. 2D, 2E (right panel), and 2F (right panel) are shown as mean±SD, n=3 technical replicates.
(§2) FIG. 3A illustrates FLAG-HA tagged cereblon wild-type (FLAG-HA-CRBN) or Y384A/W386A mutant (FLAG-HA-YWAA) produced in 293FT CRBN−/− cells was used to capture V5 tagged GSPT1 (GSPT1-V5) and V5 tagged IKZF1 (IKZF1-V5) transiently expressed in 293FT CRBN−/− cells. […] FIG. 3B illustrates the surface representation of GSPT1 in complex with cereblon, DDB1 and Compound D, with DDB1 shown in purple, cereblon in blue, and GSPT1 in orange. The position of Compound D is shown with a white arrow. FIG. 3C illustrates the Fo-Fc omit electron density (green mesh) for Compound D (yellow sticks) contoured at 3.06. FIG. 3D illustrates GSPT1's interaction with cereblon is mediated by a β-hairpin loop. Hydrogen bond interactions between cereblon and the GPST1 β-hairpin are shown as yellow dashes. FIG. 3E illustrates details of the binding interface between cereblon and GSPT1. Compound D is represented as yellow sticks. Predicted polar interactions between Compound D and cereblon are shown as yellow dashes. FIG. 3F illustrates the immunoblot analysis of U937 parental cells or cells stably expressing HA-GSPT1-G575N. Cells were treated with DMSO or Compound D at the indicated concentrations. FIGS. 3G and 311 illustrate the immunoblot analysis (left panel) and cell proliferation (right panel) of MOLM-13 (FIG. 3G) and OCI-AML2 (FIG. 311) parental cells and cells stably expressing HA tagged GSPT1-G575N. Cells were treated with DMSO or Compound D at indicated concentrations.
(§3) Like all other cereblon modulators, Compound D contains a glutarimide ring (FIG. 1A) that can bind cereblon and redirect it to target neosubstrates for degradation. Thus, the effect of Compound D on the global proteome in AML cell line KG-1 was assessed using tandem mass tag (TMT) quantitative mass spectrometry.
(§4) Specifically, U937 cells stably expressing Cas9 were infected with lentiviral vectors constitutively expressing RFP and non-targeting or non-coding sgRNA (sgNT) controls, or sgRNAs targeting TSC1 or TSC2. Infected cells were selected with 1 μg/ml puromycin. […]

GSPT1 [2] = biological target: T2, GSPT1 (Homo sapiens, UniProt P15170, G437N); test: as above; format: cell-based; conditions: U937, MOLM-13, OCI-AML2 stably expressing HA-GSPT1-G575N
T2 construct: endogenous in cells; host or cells: KG-1 (TMT proteomics); KG1, U937 / U937-Cas9, MOLM-13, OCI-AML2 (immunoblots)
Procedure: as §1, §2, §3, §4

T1 sequence (P15170 1-637 isoform P15170-3): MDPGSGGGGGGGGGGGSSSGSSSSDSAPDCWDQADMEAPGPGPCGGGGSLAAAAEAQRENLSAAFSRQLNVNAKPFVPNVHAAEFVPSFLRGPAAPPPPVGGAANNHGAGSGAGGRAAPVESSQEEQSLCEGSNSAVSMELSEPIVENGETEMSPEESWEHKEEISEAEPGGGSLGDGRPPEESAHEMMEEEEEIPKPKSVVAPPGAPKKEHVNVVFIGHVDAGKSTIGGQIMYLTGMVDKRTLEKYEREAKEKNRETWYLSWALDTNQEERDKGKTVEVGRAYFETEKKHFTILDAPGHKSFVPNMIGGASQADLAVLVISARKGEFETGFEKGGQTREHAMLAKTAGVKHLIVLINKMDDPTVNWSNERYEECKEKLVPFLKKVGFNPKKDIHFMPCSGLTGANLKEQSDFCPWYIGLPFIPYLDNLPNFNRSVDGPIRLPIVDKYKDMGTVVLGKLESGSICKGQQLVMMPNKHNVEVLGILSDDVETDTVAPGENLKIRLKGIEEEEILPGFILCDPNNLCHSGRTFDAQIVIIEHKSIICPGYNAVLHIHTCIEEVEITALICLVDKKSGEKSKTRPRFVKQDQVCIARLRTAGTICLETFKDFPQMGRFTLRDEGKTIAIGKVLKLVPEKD
T1 sequence (Q96SW2 whole entry partner): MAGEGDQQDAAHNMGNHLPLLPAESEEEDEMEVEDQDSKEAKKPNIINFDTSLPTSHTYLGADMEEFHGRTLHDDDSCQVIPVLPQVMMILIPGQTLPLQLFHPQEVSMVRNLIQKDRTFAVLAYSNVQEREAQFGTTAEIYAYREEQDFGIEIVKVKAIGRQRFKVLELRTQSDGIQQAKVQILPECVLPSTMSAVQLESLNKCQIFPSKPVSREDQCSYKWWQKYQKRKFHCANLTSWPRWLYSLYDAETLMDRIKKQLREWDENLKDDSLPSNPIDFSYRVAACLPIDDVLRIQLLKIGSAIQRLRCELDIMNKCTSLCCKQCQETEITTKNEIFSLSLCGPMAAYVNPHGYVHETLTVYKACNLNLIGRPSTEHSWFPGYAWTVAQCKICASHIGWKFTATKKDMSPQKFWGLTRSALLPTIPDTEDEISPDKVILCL
T1 sequence (Q16531 2-1140 partner): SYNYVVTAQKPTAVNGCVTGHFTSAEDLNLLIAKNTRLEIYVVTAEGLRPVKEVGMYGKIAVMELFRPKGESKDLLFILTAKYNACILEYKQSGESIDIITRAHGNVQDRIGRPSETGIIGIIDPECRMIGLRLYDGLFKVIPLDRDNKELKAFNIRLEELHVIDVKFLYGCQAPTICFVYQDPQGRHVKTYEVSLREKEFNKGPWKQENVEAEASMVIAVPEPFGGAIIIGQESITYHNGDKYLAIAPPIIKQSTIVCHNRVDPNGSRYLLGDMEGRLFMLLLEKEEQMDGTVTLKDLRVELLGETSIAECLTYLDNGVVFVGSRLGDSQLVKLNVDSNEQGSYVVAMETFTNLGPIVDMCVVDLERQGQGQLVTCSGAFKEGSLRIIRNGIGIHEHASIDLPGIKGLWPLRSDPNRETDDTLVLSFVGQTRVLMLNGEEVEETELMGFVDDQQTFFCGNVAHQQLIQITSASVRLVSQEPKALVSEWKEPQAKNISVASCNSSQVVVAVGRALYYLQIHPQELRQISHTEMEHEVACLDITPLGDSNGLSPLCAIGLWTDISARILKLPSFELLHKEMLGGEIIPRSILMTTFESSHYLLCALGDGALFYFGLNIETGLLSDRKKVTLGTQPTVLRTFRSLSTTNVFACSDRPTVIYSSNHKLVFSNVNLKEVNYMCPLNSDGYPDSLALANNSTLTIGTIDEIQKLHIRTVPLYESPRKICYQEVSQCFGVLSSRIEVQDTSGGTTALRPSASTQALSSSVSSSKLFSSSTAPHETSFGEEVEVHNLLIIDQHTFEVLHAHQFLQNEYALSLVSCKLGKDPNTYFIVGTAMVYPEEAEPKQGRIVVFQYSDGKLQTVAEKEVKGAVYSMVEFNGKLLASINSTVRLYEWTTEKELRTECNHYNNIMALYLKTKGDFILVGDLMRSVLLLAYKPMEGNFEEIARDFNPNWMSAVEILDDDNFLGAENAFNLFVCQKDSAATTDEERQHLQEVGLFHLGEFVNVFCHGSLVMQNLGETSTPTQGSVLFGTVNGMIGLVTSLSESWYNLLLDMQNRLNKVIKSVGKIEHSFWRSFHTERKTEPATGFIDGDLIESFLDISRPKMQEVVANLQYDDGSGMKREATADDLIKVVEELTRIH
T2 sequence (P15170 1-637 isoform P15170-3 G575N): as the sequence (P15170 1-637 isoform P15170-3) above, with G575N counted along it
T2 sequence (Q96SW2 whole entry partner): as the sequence (Q96SW2 whole entry partner) above
T2 sequence (Q16531 2-1140 partner): as the sequence (Q16531 2-1140 partner) above

SMILES: O=C1CCC(N2Cc3cc(CNC(=O)C(F)(F)c4ccc(Cl)cc4)ccc3C2=O)C(=O)N1 (stereo not drawn) [Compound D, 2-(4-chlorophenyl)-N-((2-(2,6-dioxopiperidin-3-yl)-1-oxoisoindolin-5-yl)methyl)-2,2-difluoroacetamide]
- downregulation of GSPT1 by Compound D under bortezomib, MLN4924 or knockout of CRBN (GSPT1 [1]; KG1, U937, MOLM-13, OCI-AML2, pretreatment 30 minutes): completely blocked
- Compound D induced GSPT1 degradation after ILF2 or ILF3 knockout (GSPT1 [1]; U937, OCI-AML2): drastically reduced cereblon protein levels, and hence Compound D-induced GSPT1 degradation; also recorded: attenuated Compound D induced GSPT1 degradation
- GSPT1 expression, cotreatment with cycloheximide (GSPT1 [1]; U937-Cas9 parental): downregulated GSPT1 expression
- GSPT1 expression, cotreatment with cycloheximide, TSC1 or TSC2 loss (GSPT1 [1]; U937 TSC1-/- and TSC2-/-): largely abrogated this effect
- Compound D induced GSPT1 degradation after TSC1 or TSC2 knockout (GSPT1 [1]; U937 and OCI-AML2): partially blocked GSPT1 degradation induced by Compound D; also recorded: Attenuated Compound D induced GSPT1 degradation
- Compound D-induced degradation of GSPT1-G575N (GSPT1 [2]): conferred complete resistance to Compound D-induced degradation
